This note sets out measurements from US9249129B2, “Morpholino substituted urea derivatives as mTOR inhibitors” (CELLZOME LIMITED, priority 2010, dated 2016).

pIC50: −log10 of the molar value. A value given as a limit tells only on which side of the number the result lay.

For one assay, the target named is T1, PI3Kβ (Homo sapiens, UniProt P42338).
T1 construct: endogenous in cells; host or cells: Jurkat cells (ATCC TIB-152) lysate, the only lysate described
Kind of assay: kinobeads assay, PI3K beta (dot blot detection). The class given is binding. As to conditions: Table 4, read-out: Inhibition values (IC50) PI3Kb.

Assay [1] concerns Akt serine-473 phosphorylation in HEK293T/17 cells. Put plainly: In vitro phospho-Akt cellular assay (pAkt S473). The format is cell-based. As to conditions: Homo sapiens, Table 6, 2 hours, Akt Ser473, read-out: pAKT (Phospho-Akt cell assay data, activity level). The text has this: In Vitro Phospho-S6 and Phospho-Akt Cellular Assay
Activation of mTOR signaling results in phosphorylation of several downstream targets. In cells, mTOR exists in two different protein complexes. The mTOR Complex-1 (mTORC1) phosphorylates and activates S6 Kinase 1 (S6K1) and S6 Kinase 2 (S6K2) (also known as p70S6K) which then phosphorylate S6 Ribosomal Protein (S6RP) (also known as RPS6). S6RP is phosphorylated on serine 235, serine 236, serine 240 and serine 244 by both pS6K1 and pS6K2. The mTOR Complex-2 (mTORC2) phosphorylates AKT on serine 473 which activates the AKT signaling pathway.
The assay measures a test compound's inhibition of S6RP serine-240/244 phosphorylation and inhibition of Akt serine-473 phosphorylation in human embryonic kidney derived HEK293T/17 cells (ATCC CRL-11268).
The HEK293T/17 cell line is maintained in DMEM media (Invitrogen catalogue number 41965-039) supplemented with 10% FCS at 37° C. in a 5% CO2 humidified incubator.
Cells are seeded in 96-well plates at 40,000 cells/well (pS6RP S240/244 assay) or 80,000 cells/well (pAkt 5473 assay) in 90 μl growth media (DMEM, 2% FCS). Plates are incubated for 1 hour in a humidified incubator to allow the cells to adhere. Cells are treated with 8 concentrations of test compounds or DMSO alone for controls (final DMSO concentration 0.1%) and incubated at 37° C. for 2 hours. Then 20 μl of 5× concentrated lysis buffer (750 mM NaCl, 100 mM Tris pH7.4, 5 mM EDTA, 5 mM EGTA, 5% Triton X-100) is added, plates are sealed and incubated for 15 minutes at 4° C. with gentle shaking. After cell lysis, 25 μl cell lysate is transferred to a MesoScale plate coated with an antibody to pS6RP Ser240/244 (MesoScale Discovery K150DGD-3) or an antibody to pAkt Ser 473 (MesoScale Discovery K151DGD-3). Plates have been blocked before by incubation with 150 μl MesoScale Discovery Blocking Solution-A for 1 hour at room temperature followed by washing with 150 μl 1× Tris wash buffer per well. After the transfer of the cell lysate to the MSD plate, the pS6RP (or pAkt) protein is captured on the coated antibody by incubation at room temperature for 1 hour with gentle shaking. After the capture step the plate is washed three times with 150 μl of 1× Tris wash buffer per well. Then 25 μl detection antibody conjugated with a Sulfo-Tag is added and incubated for 1 hour at room temperature with gentle shaking. Subsequently the antibody solution is removed and the plate is washed 3 times with 150 μl 1× Tris wash buffer per well and 150 μl Read buffer is added. The plates are analysed on a MSD 2400 Plate Reader (MesoScale Discovery). Data analysis is performed using nonlinear regression for a sigmoidal dose-response with a variable slope.

T1 sequence (P42338 whole entry): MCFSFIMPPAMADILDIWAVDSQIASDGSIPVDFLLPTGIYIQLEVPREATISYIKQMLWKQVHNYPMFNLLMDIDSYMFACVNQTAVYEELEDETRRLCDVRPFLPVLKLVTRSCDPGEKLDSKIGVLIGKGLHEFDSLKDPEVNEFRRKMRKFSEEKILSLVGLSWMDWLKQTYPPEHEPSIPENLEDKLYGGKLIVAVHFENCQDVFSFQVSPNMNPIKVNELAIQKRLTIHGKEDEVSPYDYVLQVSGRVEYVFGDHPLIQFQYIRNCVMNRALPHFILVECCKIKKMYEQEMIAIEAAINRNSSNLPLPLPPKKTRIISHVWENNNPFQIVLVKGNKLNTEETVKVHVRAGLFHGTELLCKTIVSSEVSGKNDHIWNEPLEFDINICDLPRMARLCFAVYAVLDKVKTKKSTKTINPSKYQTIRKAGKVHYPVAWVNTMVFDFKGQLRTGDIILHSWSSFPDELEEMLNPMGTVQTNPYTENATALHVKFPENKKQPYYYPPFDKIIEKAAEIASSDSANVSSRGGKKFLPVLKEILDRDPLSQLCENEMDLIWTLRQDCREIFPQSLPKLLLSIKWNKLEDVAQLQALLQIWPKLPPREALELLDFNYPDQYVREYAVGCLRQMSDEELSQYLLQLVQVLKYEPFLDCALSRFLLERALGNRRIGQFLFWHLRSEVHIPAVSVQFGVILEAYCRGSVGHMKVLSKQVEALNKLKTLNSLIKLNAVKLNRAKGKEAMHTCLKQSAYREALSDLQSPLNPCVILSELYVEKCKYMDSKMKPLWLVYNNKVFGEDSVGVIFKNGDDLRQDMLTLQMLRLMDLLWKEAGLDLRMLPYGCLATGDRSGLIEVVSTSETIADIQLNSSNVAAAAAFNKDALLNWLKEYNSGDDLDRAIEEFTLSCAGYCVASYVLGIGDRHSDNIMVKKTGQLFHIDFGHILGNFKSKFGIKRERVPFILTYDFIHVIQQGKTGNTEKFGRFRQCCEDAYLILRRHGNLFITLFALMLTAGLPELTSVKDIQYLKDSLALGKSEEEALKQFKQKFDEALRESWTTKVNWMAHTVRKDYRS
T1 sequence (P27986 whole entry partner): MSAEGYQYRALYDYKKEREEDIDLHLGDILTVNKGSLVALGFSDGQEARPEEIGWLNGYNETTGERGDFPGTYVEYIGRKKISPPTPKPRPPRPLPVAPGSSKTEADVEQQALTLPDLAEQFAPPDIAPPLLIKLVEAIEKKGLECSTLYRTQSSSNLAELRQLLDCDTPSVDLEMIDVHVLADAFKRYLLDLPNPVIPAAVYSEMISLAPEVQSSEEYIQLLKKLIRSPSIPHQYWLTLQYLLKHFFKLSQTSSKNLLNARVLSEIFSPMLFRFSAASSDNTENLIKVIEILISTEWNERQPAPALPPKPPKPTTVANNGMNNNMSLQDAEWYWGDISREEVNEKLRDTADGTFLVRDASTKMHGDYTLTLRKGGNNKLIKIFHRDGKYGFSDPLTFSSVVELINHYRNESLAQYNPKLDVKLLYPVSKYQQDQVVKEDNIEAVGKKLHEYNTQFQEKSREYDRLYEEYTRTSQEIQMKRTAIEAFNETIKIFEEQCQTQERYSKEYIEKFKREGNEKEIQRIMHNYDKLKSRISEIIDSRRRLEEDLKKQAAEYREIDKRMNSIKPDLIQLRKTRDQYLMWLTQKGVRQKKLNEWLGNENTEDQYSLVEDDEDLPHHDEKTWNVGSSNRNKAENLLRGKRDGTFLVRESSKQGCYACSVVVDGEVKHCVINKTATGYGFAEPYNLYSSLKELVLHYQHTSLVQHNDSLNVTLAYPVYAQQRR

Take `C[C@H]1COCCN1c1ccnc(-c2ccc(NC(=O)Nc3ccncc3)cc2)n1` [Example 60, (S)-1-(4-(4-(3-methylmorpholino)pyrimidin-2-yl)phenyl)-3-(pyridin-4-yl)urea]: the values for the pIC50 (at PI3Kβ; in assay [1]) were no more than 5.00 and greater than 7.00, respectively.
On to `C[C@H]1COCCN1c1nc(-c2ccc(NC(=O)NCC(F)F)cc2)cc(-c2cc(F)ccc2S(C)(=O)=O)n1` [Example 47, (S)-1-(2,2-difluoroethyl)-3-(4-(6-(5-fluoro-2-(methylsulfonyl)phenyl)-2-(3-methylmorpholino)pyrimidin-4-yl)phenyl)urea], for which the pIC50 at PI3Kβ was no more than 5.00; in assay [1] it was greater than 7.00.
`O=C(Nc1ccncc1)Nc1ccc(-c2nccc(N3CC4CCC(C3)O4)n2)cc1` [Example 61, 1-(4-(4-(8-oxa-3-azabicyclo[3.2.1]octan-3-yl)pyrimidin-2-yl)phenyl)-3-(pyridin-4-yl)urea]: the pIC50 is no more than 5.00 at PI3Kβ and greater than 7.00 in assay [1].
On the same counts, the results for `CCNC(=O)Nc1ccc(-c2cc(-c3cc(F)ccc3S(C)(=O)=O)nc(N3CCOC[C@@H]3C)n2)cc1` [Example 2, (S)-1-ethyl-3-(4-(6-(5-fluoro-2-(methylsulfonyl)phenyl)-2-(3-methylmorpholino)pyrimidin-4-yl)phenyl)urea] are no more than 5.00 and greater than 7.00.
For `C[C@H]1COCCN1c1nc(-c2ccc(NC(=O)N[C@H]3CCC[C@@H]3O)cc2)cc(-c2cc(F)ccc2S(C)(=O)=O)n1` [Example 76, 1-(4-(6-(5-fluoro-2-(methylsulfonyl)phenyl)-2-((S)-3-methylmorpholino)pyrimidin-4-yl)phenyl)-3-((1S,2S)-2-hydroxycyclopentyl)urea], the pIC50 is no more than 5.00 at PI3Kβ and greater than 7.00 in assay [1].
`C[C@H]1COCCN1c1nc(-c2ccc(NC(=O)NC3CC3)cc2)cc(-c2ccccc2S(C)(=O)=O)n1` [Example 4, (S)-1-cyclopropyl-3-(4-(2-(3-methylmorpholino)-6-(2-(methylsulfonyl)phenyl)pyrimidin-4-yl)phenyl)urea]: at PI3Kβ, the pIC50 is no more than 5.00.
Take `C[C@H]1COCCN1c1cc(-c2ccccc2S(C)(=O)=O)nc(-c2ccc(NC(=O)NC3CC3)cc2)n1` [Example 6, (S)-1-cyclopropyl-3-(4-(4-(3-methylmorpholino)-6-(2-(methylsulfonyl)phenyl)pyrimidin-2-yl)phenyl)urea]: the pIC50 on PI3Kβ was no more than 5.00; in assay [1], greater than 7.00.
Regarding `C[C@H]1COCCN1c1cc(-c2ccccn2)nc(-c2ccc(NC(=O)NCCO)cc2)n1` [Example 43, (S)-1-(2-hydroxyethyl)-3-(4-(4-(3-methylmorpholino)-6-(pyridin-2-yl)pyrimidin-2-yl)phenyl)urea], the values for the pIC50 (on PI3Kβ; in assay [1]) were no more than 5.00 and greater than 7.00, respectively.
With `C[C@H]1COCCN1c1nc(-c2ccc(NC(=O)NCCO)cc2)cc(-c2cc(F)ccc2S(C)(=O)=O)n1` [Example 41, (S)-1-(4-(6-(5-fluoro-2-(methylsulfonyl)phenyl)-2-(3-methylmorpholino)pyrimidin-4-yl)phenyl)-3-(2-hydroxyethyl)urea], the pIC50 was no more than 5.00 at PI3Kβ and greater than 7.00 in assay [1].
As to `C[C@H]1COCCN1c1cc(-c2ccc(F)nc2)nc(-c2ccc(NC(=O)NC3CC3)cc2)n1` [Example 21, (S)-1-cyclopropyl-3-(4-(4-(6-fluoropyridin-3-yl)-6-(3-methylmorpholino)pyrimidin-2-yl)phenyl)urea], the figures for the pIC50 (at PI3Kβ; in assay [1]) were no more than 5.00 and 6.00 to 7.00, respectively.
The like results for `C[C@H]1COCCN1c1cc(-c2ccccn2)nc(-c2ccc(NC(=O)NC3CC3)cc2)n1` [Example 42, (S)-1-cyclopropyl-3-(4-(4-(3-methylmorpholino)-6-(pyridin-2-yl)pyrimidin-2-yl)phenyl)urea] were, in that order, no more than 5.00 and greater than 7.00.
`CS(=O)(=O)c1ccc(F)cc1-c1cc(-c2ccc(NC(=O)NCCO)cc2)nc(N2CCOCC2)n1` [Example 62, 1-(4-(6-(5-fluoro-2-(methylsulfonyl)phenyl)-2-morpholinopyrimidin-4-yl)phenyl)-3-(2-hydroxyethyl)urea]: the results for the pIC50 (at PI3Kβ; in assay [1]) were no more than 5.00 and greater than 7.00, respectively.
On the same counts, the results for `C[C@H]1COCCN1c1nc(-c2ccc(NC(=O)NCCF)cc2)cc(-c2cc(F)ccc2S(C)(=O)=O)n1` [Example 44, (S)-1-(4-(6-(5-fluoro-2-(methylsulfonyl)phenyl)-2-(3-methylmorpholino)pyrimidin-4-yl)phenyl)-3-(2-fluoroethyl)urea] are no more than 5.00 and greater than 7.00.
Take `C[C@H]1COCCN1c1nc(-c2ccc(NC(=O)NC3CC3)cc2)cc(-c2cccnc2S(C)(=O)=O)n1` [Example 46, (S)-1-cyclopropyl-3-(4-(2-(3-methylmorpholino)-6-(2-(methylsulfonyl)pyridin-3-yl)pyrimidin-4-yl)phenyl)urea]: the pIC50 on PI3Kβ is no more than 5.00; in assay [1], greater than 7.00.
On the same counts, the results for `C[C@H]1COCCN1c1cc(-c2cncc(F)c2)nc(-c2ccc(NC(=O)NC3CC3)cc2)n1` [Example 23, (S)-1-cyclopropyl-3-(4-(4-(5-fluoropyridin-3-yl)-6-(3-methylmorpholino)pyrimidin-2-yl)phenyl)urea] are no more than 5.00 and greater than 7.00.
On the same counts, the results for `C[C@H]1COCCN1c1nc(-c2ccc(NC(=O)NCCCO)cc2)cc(-c2cc(F)ccc2S(C)(=O)=O)n1` [Example 64, (S)-1-(4-(6-(5-fluoro-2-(methylsulfonyl)phenyl)-2-(3-methylmorpholino)pyrimidin-4-yl)phenyl)-3-(3-hydroxypropyl)urea] are no more than 5.00 and greater than 7.00.
Regarding `C[C@H]1COCCN1c1nc(-c2ccc(NC(=O)NC3CC3)cc2)cc(-c2cc(F)ccc2S(C)(=O)=O)n1` [Example 40, (S)-1-cyclopropyl-3-(4-(6-(5-fluoro-2-(methylsulfonyl)phenyl)-2-(3-methylmorpholino)pyrimidin-4-yl)phenyl)urea], the pIC50 on PI3Kβ is no more than 5.00; in assay [1], greater than 7.00.
